Results published in US20100297020A1, “PHOSPHORYLATED AND PHOSPHONATED PYRONE ANALOGS FOR THERAPEUTIC TREATMENT” (Limerick Biopharma, Inc., priority 2008, published 2010).

Legend:
AdrenergicA2A = biological target: T1, AdrenergicA2A (Homo sapiens, UniProt P08913); test: AdrenergicA2A GTPγS functional assay; type: biochemical; details: 10 μM; compound may be / can be tested
T1 sequence (P08913 1-465): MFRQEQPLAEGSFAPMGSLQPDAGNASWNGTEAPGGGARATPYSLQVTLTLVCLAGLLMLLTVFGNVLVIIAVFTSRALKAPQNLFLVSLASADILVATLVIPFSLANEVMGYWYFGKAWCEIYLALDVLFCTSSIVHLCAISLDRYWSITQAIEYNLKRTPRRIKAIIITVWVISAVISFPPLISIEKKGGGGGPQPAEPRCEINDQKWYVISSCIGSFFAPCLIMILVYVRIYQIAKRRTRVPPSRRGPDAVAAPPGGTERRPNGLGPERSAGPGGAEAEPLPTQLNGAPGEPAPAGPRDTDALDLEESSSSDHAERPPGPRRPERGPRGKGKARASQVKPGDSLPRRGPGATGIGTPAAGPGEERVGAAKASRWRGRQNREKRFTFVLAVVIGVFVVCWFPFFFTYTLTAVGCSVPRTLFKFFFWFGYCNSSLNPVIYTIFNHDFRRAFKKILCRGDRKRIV
Experimental: The compound is additionally tested in AdenosineA1, AdrenergicA2A, DopamineD25, Histamine H1-, and μ-Opiate GTPγS functional assays using a concentration of 10 μM.
The compound may be additionally tested in AdenosineA1, AdrenergicA2A, DopamineD25, Histamine H1-, and μ-Opiate GTPγS functional assays using a concentration of 10 μM.
The compound can be additionally tested in AdenosineA1, AdrenergicA2A, DopamineD25, Histamine H1-, and μ-Opiate GTPγS functional assays using a concentration of 10 μM.

ZDF rats = test: Oral glucose tolerance test (OGTT) in ZDF rats after the 4 week study; type: in vivo; details: glucose 2 g/Kg PO; compound 2 100 mg/kg, compound 3 50 mg/kg i.p.
Experimental: Following the 4 week study described in Example 26 above, the animals were fasted for 12 hours and on day-29, pre-drug blood samples are collected and glucose level and insulin level are measured. The animals are treated intraperitoneally (i.p.) with the following compounds:
Thirty (30) minutes after the treatment, pre-glucose blood samples are collected and the animals are then dosed with glucose (2 g/Kg, PO). Tail vein blood samples are collected at 30, 60, 90 and 120 minutes. Glucose levela and insulin leveal are measured. FIG. 31 show the plasma glucose level measured during OGTT. […] FIG. 32 show the plasma insulin level measured during OGTT. Phosphonated pyrone analogs raise insulin output in response to OGTT.

[1] = tested on: BB19 cells, human BCECs (brain capillary endothelial cells); test: Tacrolimus uptake assay; type: cell-based; details: Endothelial cell, 1 h, 0.1 μM test compound, 1 hour incubation, 3H-tacrolimus 34 nM, read-out: cell associated ^3H-tacrolimus uptake, % of control
Experimental: BB19 cells, human BCECs (brain capillary endothelial cells) immortalized with the E6E7 genes of human papilloma virus, were kindly provided from Jacques G. Prudhomme, Department of Biology, University of California, Riverside, U.S.A. The cells were cultured as monolayer culture in Amniomax™-C100 basal medium (catalog number 17001-157) with Amniomax™-C100 supplement (catalog number 12556-049) (Invitrogen, Basel, CH).
Cells were seeded onto culture surfaces precoated with 10 μg/cm^2 rat tail collagen type I (BD Bioscience, Allschwil, CH) at a density of approximately 50′000 cells/cm^2 and were cultured in an incubator at 37° C. with 5% CO2, 95% fresh air and saturated humidity. For uptake assays, cells were seeded on precoated 96-well plates. Assays were performed at confluency, after 6 days in culture.
BB19 cells were seeded 50′000 cells/cm^2 on 96-well plates (Falcon) and incubated under condition described above for 6 days. Before starting the assay, cells were washed 2 times with pre-warmed Dulbecco's MEM with Glutamax-I (catalog number 61965) (Invitrogen AG, Basel, CH), supplemented with 1% non essential amino acids, 1% sodium pyruvate, 50 μg/ml gentamycin (Invitrogen AG) (DMEM). Cells were then incubated for 15 min at 37° C. and 120 rpm in DMEM with or without the specified concentrations of test compounds under investigation. After this pre-incubation, cells were incubated in DMEM containing [propyl-3H]-dihydro-FK506 (3H-tacrolimus, 1 μCi/ml, 34 nM) and with or without the specified concentrations of test compounds for 1 hour at 37° C. and 120 rpm. During this 1-hour incubation period, influx and efflux of the substrate, ^3H-tacrolimus, occur. After the 1-hour incubation period, assay was terminated by placing the assay plate on ice and washing the cells twice with ice-cold DMEM. Determination of cell associated ^3H-tacrolimus was performed by addition of Insta Gel and scintillation liquid to trypsinized cells followed by analysis on a scintillation counter (Packard TriCarb2000, Can berra Packard S.A.). The results are expressed as: % of control=100×[^3H-tacrolimus conc. with test compound]/[^3H-tacrolimus conc. with vehicle]

Q: Which “inhibition in the AdrenergicA2A assay” value (AdrenergicA2A) does the source give for O=c1c(O)c(-c2ccc(O)c(OCP(=O)(O)O)c2)oc2cc(O)cc(O)c12 [Compound 2, Quercetin-3′-O-methylphosphonic acid] here?
A: Its value is “marked negative inhibition”.

Q: What about the “plasma glucose level during OGTT” value (ZDF rats) of the same molecule?
A: Its value is “protect against hyperglycemia”.

Q: And the activity at 0.1 µM [1]?
A: Its activity at 0.1 µM is 51%.
